Measurements taken from patent US20050250822A1, “Substituted benzanilide compound and noxious organism controlling agent” (priority 2002, published 2005).
Where two headings read alike, the source gives them in different places.

Columns and labels:
[1] = test system: Common cutworms (Spodoptera litura) with second instar larvae; test: Insecticidal test against common cutworm (leaf dip); format: in vivo; settings: foliar, 144 h, read-out: insecticidal rate (rate of dead insects)
Method: Insecticidal Test Against Common Cutworm
(§1) A 10% emulsifiable concentrate (depending on the compounds, 25% wettable powder was applied for the test) of the compound of the present invention was diluted with water containing a spreading agent to prepare a chemical solution with a concentration of 100 ppm. To the chemical solution was dipped leaves of Chinese olive for about 10 seconds, and after air-drying, they were placed in a laboratory dish, then, 10 Common cutworms (Spodoptera litura) with second instar larvae per the dish were released therein, and the dish was covered with a lid having holes and contained at a thermostat chamber at 25° C. A number of dead insect(s) after 6 days was counted and a rate of dead insects was calculated by the following calculation formula. Incidentally, the test was carried out with two districts. Rate of dead insects (%)=(Number of dead insects/Number of released insects)×100

[2] = test system: diamondback moths (Plutella xylostella) with second instar larvae; test: Insecticidal test against diamondback moth (leaf dip); format: in vivo; settings: foliar, 144 h, read-out: insecticidal rate (rate of dead insects)
Method: Insecticidal Test Against Diamondback Moth
as §1, with “diamondback moths (Plutella xylostella)” for “Common cutworms (Spodoptera litura)”, “in” for “by”, “same manner as in Test Example 1.” for “following calculation formula.”, “districts.” for “districts. Rate of dead insects (%)=(Number of dead insects/Number of released insects)×100”

[3] = chemical solution 100 ppm, leaf dip, 25° C., dead insects counted after 6 days

Structure (SMILES) | pest or weed control at 100 ppm [1, 3] | pest or weed control at 100 ppm [2, 3] | pest or weed control at 100 ppm [1] | pest or weed control at 100 ppm [2]
Cc1cc(C2(C(F)(F)F)C=NC(c3ccccc3)C2)ccc1NC(=O)c1cccc(I)c1C(=O)NC(C)C (stereo not shown) [7-04, 3-Iodo-N^2-isopropyl-N^1-[2-methyl-4-(2-phenyl-4-trifluoromethyl-3,4-dihydro-2H-pyrrol-4-yl)phenyl]phthalic diamide] | ≥ 80% | ≥ 80% |  | 
Cc1cc(C2(C(F)(F)C(F)(F)C(F)(F)F)CC(c3ccc(Cl)cc3)=NO2)ccc1NC(=O)c1cccc(I)c1C(=O)NC(C)C (stereo not shown) [2-059, N^1-[4-[3-(4-chlorophenyl)-5-heptafluoropropyl-4,5-dihydroisoxazol-5-yl]-2-methylphenyl]-3-iodo-N^2-isopropylphthalic diamide] |  |  | ≥ 80% | ≥ 80%
Cc1cc(C2(C(F)(F)F)CC(c3ccc(Cl)cc3)=NN2C)ccc1NC(=O)c1cccc(I)c1C(=O)NC(C)C (stereo not shown) [6-04, N^1-[4-[3-(4-chlorophenyl)-1-methyl-5-trifluoromethyl-4,5-dihydropyrazol-5-yl]-2-methylphenyl]-3-iodo-N^2-isopropylphthalic diamide] | ≥ 80% | ≥ 80% |  | 
CSCC(C)NC(=O)c1c(I)cccc1C(=O)Nc1ccc(C2(C(F)(F)F)CC(c3ccc(Cl)cc3)=NO2)cc1C (stereo not shown) [2-095, N^1-[4-[3-(4-chlorophenyl)-5-trifluoromethyl-4,5-dihydroisoxazol-5-yl]-2-methylphenyl]-3-iodo-N^2-(1-methyl-2-methylthioethyl)phthalic diamide] | ≥ 80% | ≥ 80% |  | 
CSCC(C)NC(=O)c1c(I)cccc1C(=O)Nc1ccc(C2(c3ccc(Cl)cc3)CC2(Cl)Cl)cc1C (stereo not shown) [9-041, N^1-[4-(2,2-dichloro-1-(4-chlorophenyl)cyclopropyl)-2-methylphenyl]-3-iodo-N^2-(1-methyl-2-methylthioethyl)phthalic diamide] |  |  | ≥ 80% | ≥ 80%
Cc1cc(C2(C(F)(F)F)CC(c3ccc(F)cc3)=NO2)ccc1NC(=O)c1cccc(I)c1C(=O)NC(C)C (stereo not shown) [2-016, N^1-[4-[3-(4-fluorophenyl)-5-trifluoromethyl-4,5-dihydroisoxazol-5-yl]-2-methylphenyl]-3-iodo-N^2-isopropylphthalic diamide] | ≥ 80% | ≥ 80% |  | 
Cc1cc(C2(C(F)(F)F)CN=C(c3ccc(Cl)cc3)S2)ccc1NC(=O)c1cccc(I)c1C(=O)NC(C)C (stereo not shown) [4-04, N^1-[4-[2-(4-chlorophenyl)-5-trifluoromethyl-4,5-dihydrothiazol-5-yl]-2-methylphenyl]-3-iodo-N^2-isopropylphthalic diamide] | ≥ 80% | ≥ 80% |  | 
Cc1cc(C2(C(F)(F)F)CC2(C#N)C#N)ccc1NC(=O)c1cccc(I)c1C(=O)NC(C)C (stereo not shown) [9-001, N^1-[4-(2,2-dicyano-1-trifluoromethylcyclopropyl)-2-methylphenyl]-3-iodo-N^2-isopropylphthalic diamide] | ≥ 80% | ≥ 80% |  | 
Cc1cc(C2(C(F)(F)F)CC(c3ccc(F)cc3)=NO2)ccc1NC(=O)c1cccc([N+](=O)[O-])c1C(=O)NC(C)C (stereo not shown) [2-167, N^1-[4-[3-(4-fluorophenyl)-5-trifluoromethyl-4,5-dihydroisoxazol-5-yl]-2-methylphenyl]-3-nitro-N^2-isopropylphthalic diamide] | ≥ 80% | ≥ 80% |  | 
Cc1cc(C2(C(F)(F)F)OCC(c3ccc(Cl)cc3)O2)ccc1NC(=O)c1cccc(I)c1C(=O)NC(C)C (stereo not shown) [7-03, N^1-[4-[4-(4-chlorophenyl)-2-trifluoromethyl-1,3-dioxolan-2-yl]-2-methylphenyl]-3-iodo-N^2-isopropylphthalic diamide] | ≥ 80% | ≥ 80% |  | 
Cc1cc(C2(C(F)(F)F)CC(C(F)(F)F)=NO2)ccc1NC(=O)c1cccc(I)c1C(=O)NC(C)C (stereo not shown) [1-013, 3-Iodo-N^2-isopropyl-N^1-[2-methyl-4-(3,5-bistrifluoromethyl-4,5-dihydroisoxazol-5-yl)phenyl]phthalic diamide] |  | ≥ 80% |  | 
CC1=NOC(c2ccc(NC(=O)c3cccc(I)c3C(=O)NC(C)C)c(C)c2)(C(F)(F)F)C1 (stereo not shown) [1-006, 3-Iodo-N^2-isopropyl-N^1-[2-methyl-4-(3-methyl-5-trifluoromethyl-4,5-dihydroisoxazol-5-yl)phenyl]phthalic diamide] | ≥ 80% | ≥ 80% |  | 
Cc1cc(C2(C(F)(F)F)CC(c3ccc(C#N)cc3)=NO2)ccc1NC(=O)c1cccc(I)c1C(=O)NC(C)C (stereo not shown) [2-046, N^1-[4-[3-(4-cyanophenyl)-5-trifluoromethyl-4,5-dihydroisoxazol-5-yl]-2-methylphenyl]-3-iodo-N^2-isopropylphthalic diamide] | ≥ 80% | ≥ 80% |  | 
CCN(CC)C(=O)c1c(I)cccc1C(=O)Nc1ccc(C2(C(F)(F)F)CC(c3ccc(S(C)(=O)=O)cc3)=NO2)cc1C (stereo not shown) [2-162, N^2, N^2-diethyl-3-iodo-N^1-[4-[3-(4-methylsulfonylphenyl)-5-trifluoromethyl-4,5-dihydroisoxazol-5-yl]-2-methylphenyl]phthalic diamide] |  | ≥ 80% |  | 
Cc1cc(C2(C(F)(F)F)CC(c3ccc(C(N)=O)cc3)=NO2)ccc1NC(=O)c1cccc(I)c1C(=O)NC(C)C (stereo not shown) [2-048, N^1-[4-[3-(4-carbamoylphenyl)-5-trifluoromethyl-4,5-dihydroisoxazol-5-yl]-2-methylphenyl]-3-iodo-N^2-isopropylphthalic diamide] | ≥ 80% | ≥ 80% |  | 
Cc1cc(C2(C(F)(F)F)CC(c3ccc([S+](C)[O-])cc3)=NO2)ccc1NC(=O)c1cccc(I)c1C(=O)NC(C)C (stereo not shown) [2-037, 3-Iodo-N 2 isopropyl-N^1-[4-[3-(4-methylsulfinylphenyl)-5-trifluoromethyl-4,5-dihydroisoxazol-5-yl]-2-methylphenyl]phthalic diamide] | ≥ 80% | ≥ 80% |  | 
Cc1cc(C2(C(F)(F)F)CC(C#N)=C(c3ccccc3)O2)ccc1NC(=O)c1cccc(I)c1C(=O)NC(C)C (stereo not shown) [4-01, N^1-[4-(3-cyano-2-phenyl-5-trifluoromethyl-4,5-dihydrofuran-5-yl)-2-methylphenyl]-3-iodo-N 2-isopropylphthalic diamide] |  | ≥ 80% |  | 
CSCC(C)NC(=O)c1c(I)cccc1C(=O)Nc1ccc(C2(c3ccc(Cl)cc3)CC2(F)F)cc1C (stereo not shown) [9-026, N^1-[4-(2,2-difluoro-1-(4-chlorophenyl)cyclopropyl)-2-methylphenyl]-3-iodo-N^2-(1-methyl-2-methylthioethyl)phthalic diamide] | ≥ 80% | ≥ 80% |  | 
Cc1cc(C2(C(F)(F)F)ON=C(c3ccc(F)cc3)O2)ccc1NC(=O)c1cccc(I)c1C(=O)NC(C)C (stereo not shown) [4-05, N^1-[4-[3-(4-fluorophenyl)-5-trifluoromethyl-1,4,2-dioxazolin-5-yl]-2-methylphenyl]-3-iodo-N 2-isopropylphthalic diamide] | ≥ 80% | ≥ 80% |  | 
CCOC(=O)C1=NOC(c2ccc(NC(=O)c3c(I)cccc3C(=O)NC(C)C)c(C)c2)(C(F)(F)F)C1 (stereo not shown) [1-020, N^1-[4-(3-ethoxycarbonyl-5-trifluoromethyl-4,5-dihydroisoxazol-5-yl)-2-methylphenyl]-6-iodo-N^2-isopropylphthalic diamide] |  | ≥ 80% |  | 
CC1=NN(c2ccc(Cl)cc2)C(c2ccc(NC(=O)c3cccc(I)c3C(=O)NC(C)C)c(C)c2)C1 (stereo not shown) [6-02, N^1-[4-[1-(4-chlorophenyl)-3-methyl-4,5-dihydropyrazol-5-yl]-2-methylphenyl]-3-iodo-N^2-isopropylphthalic diamide] |  | ≥ 80% |  | 
CC1=NOC(c2ccc(NC(=O)c3c(I)cccc3C(=O)NC(C)C)c(C)c2)(C(F)(F)F)C1 (stereo not shown) [1-007, 6-iodo-N^2-isopropyl-N^1-[2-methyl-4-(3-methyl-5-trifluoromethyl-4,5-dihydroisoxazol-5-yl)phenyl]phthalic diamide] |  | ≥ 80% |  | 
Cc1cc(C2(C(F)(F)F)CC(c3ccc(F)cc3)=NO2)ccc1NC(=O)c1cccc(N)c1C(=O)NC(C)C (stereo not shown) [2-170, 3-Amino-N^1-[4-[3-(4-fluorophenyl)-5-trifluoromethyl-4,5-dihydroisoxazol-5-yl]-2-methylphenyl]-N^2-isopropylphthalic diamide] | ≥ 80% | ≥ 80% |  | 
CC1=NC(c2ccc(Cl)cc2)=CC(c2ccc(NC(=O)c3cccc(I)c3C(=O)NC(C)C)c(C)c2)(C(F)(F)F)N1 (stereo not shown) [8-01, N^1-[4-[6-(4-chlorophenyl)-2-methyl-4-trifluoromethyl-3,4-dihydropyrimidin-4-yl]-2-methylphenyl]-3-iodo-N^2-isopropylphthalic diamide] | ≥ 80% | ≥ 80% |  | 
Cc1cc(C2(C(F)(F)F)OCC(c3ccc(Cl)cc3)S2)ccc1NC(=O)c1cccc(I)c1C(=O)NC(C)C (stereo not shown) [7-09, N^1-[4-[4-(4-chlorophenyl)-2-trifluoromethyl-1,3-oxathiolan-2-yl]-2-methylphenyl]-3-iodo-N^2-isopropylphthalic diamide] |  | ≥ 80% |  | 
